From patent publication US10604493B2, “Compositions, methods of use, and methods of treatment” (priority 2012, dated 2020)

How the values were obtained:
CTX-M-9 = CTX-M-9 (Escherichia coli, UniProt Q9L5C8); test: biochemical; conditions: for LipE (defined as log Ki-c log P): from Ki against CTX-M-9 and c log P
Text: To investigate the effectiveness of the new analogs, we employed CTX-M-9 and a UV-absorbance based biochemical assay to obtain binding affinities. […] The parameter LipE (defined as log Ki-c log P)^24 provides a measure of binding affinity improvement achieved while retaining favorable physiochemical properties.
The compounds were synthesized as previously described or purchased from the company Chembridge, and assayed without further purification. The highest concentrations at which the compounds were tested were up to 1-3 mM (depending on their solubility) in IC50 experiment. The reaction was initiated by adding protein to the reaction buffer last.

[1] = test system: O=C(Cc1cccs1)N[C@@H]1C(=O)N2C(C(=O)O)=C(/C=C/c3ccc([N+](=O)[O-])cc3[N+](=O)[O-])CS[C@H]12; test: purified protein, by the assay type; conditions: other: substrate, 100 mM Tris-HCl pH 7.0, 0.01% Triton X-100

Compound	LipE (defined as log Ki-c log P) (CTX-M-9)	Ki (CTX-M-9) [µM]	other results
O=C(Nc1cccc(-c2nnn[nH]2)c1)c1cccc(F)c1 [Compound 1]	1.37	–	–
N#Cc1cccc(C(=O)Nc2cccc(-c3nnn[nH]3)c2)c1 [Compound 14, 3-Cyano-N-[3-(1H-tetrazol-5-yl)-phenyl]-benzamide]	–	7.2	–
O=C(Nc1cccc(-c2nnn[nH]2)c1)c1cc(C(F)(F)F)cc2nc[nH]c12 [Compound 19, 6-Trifluoromethyl-3H-benzoimidazole-4-carboxylic acid [3-(1H-tetrazol-5-yl)-phenyl]-amide]	3.86	0.089	ligand efficiency (L.E.) (CTX-M-9; from Ki against CTX-M-9): 0.36
CC(=O)c1cccc(C(=O)Nc2cccc(-c3nnn[nH]3)c2)c1 [Compound 7, 3-Acetyl-N-[3-(1H-tetrazol-5-yl)-phenyl]-benzamide]	2.51	–	–
O=C(Nc1cccc(-c2nnn[nH]2)c1)c1cc(F)cc2nc[nH]c12 [Compound 23, 6-Fluoro-3H-benzoimidazole-4-carboxylic acid [3-(1H-tetrazol-5-yl)-phenyl]-amide]	–	–	potency (Ki) relative to comparator compound, in words (CTX-M-9; CTX-M-9): only equipotent to des-fluoro comparator 16
CTX-M-9 (Escherichia coli)	–	–	Km [1]: 24 µM
